SMILES strings stand for the structures.

T1 sequence (O00763 144-2458): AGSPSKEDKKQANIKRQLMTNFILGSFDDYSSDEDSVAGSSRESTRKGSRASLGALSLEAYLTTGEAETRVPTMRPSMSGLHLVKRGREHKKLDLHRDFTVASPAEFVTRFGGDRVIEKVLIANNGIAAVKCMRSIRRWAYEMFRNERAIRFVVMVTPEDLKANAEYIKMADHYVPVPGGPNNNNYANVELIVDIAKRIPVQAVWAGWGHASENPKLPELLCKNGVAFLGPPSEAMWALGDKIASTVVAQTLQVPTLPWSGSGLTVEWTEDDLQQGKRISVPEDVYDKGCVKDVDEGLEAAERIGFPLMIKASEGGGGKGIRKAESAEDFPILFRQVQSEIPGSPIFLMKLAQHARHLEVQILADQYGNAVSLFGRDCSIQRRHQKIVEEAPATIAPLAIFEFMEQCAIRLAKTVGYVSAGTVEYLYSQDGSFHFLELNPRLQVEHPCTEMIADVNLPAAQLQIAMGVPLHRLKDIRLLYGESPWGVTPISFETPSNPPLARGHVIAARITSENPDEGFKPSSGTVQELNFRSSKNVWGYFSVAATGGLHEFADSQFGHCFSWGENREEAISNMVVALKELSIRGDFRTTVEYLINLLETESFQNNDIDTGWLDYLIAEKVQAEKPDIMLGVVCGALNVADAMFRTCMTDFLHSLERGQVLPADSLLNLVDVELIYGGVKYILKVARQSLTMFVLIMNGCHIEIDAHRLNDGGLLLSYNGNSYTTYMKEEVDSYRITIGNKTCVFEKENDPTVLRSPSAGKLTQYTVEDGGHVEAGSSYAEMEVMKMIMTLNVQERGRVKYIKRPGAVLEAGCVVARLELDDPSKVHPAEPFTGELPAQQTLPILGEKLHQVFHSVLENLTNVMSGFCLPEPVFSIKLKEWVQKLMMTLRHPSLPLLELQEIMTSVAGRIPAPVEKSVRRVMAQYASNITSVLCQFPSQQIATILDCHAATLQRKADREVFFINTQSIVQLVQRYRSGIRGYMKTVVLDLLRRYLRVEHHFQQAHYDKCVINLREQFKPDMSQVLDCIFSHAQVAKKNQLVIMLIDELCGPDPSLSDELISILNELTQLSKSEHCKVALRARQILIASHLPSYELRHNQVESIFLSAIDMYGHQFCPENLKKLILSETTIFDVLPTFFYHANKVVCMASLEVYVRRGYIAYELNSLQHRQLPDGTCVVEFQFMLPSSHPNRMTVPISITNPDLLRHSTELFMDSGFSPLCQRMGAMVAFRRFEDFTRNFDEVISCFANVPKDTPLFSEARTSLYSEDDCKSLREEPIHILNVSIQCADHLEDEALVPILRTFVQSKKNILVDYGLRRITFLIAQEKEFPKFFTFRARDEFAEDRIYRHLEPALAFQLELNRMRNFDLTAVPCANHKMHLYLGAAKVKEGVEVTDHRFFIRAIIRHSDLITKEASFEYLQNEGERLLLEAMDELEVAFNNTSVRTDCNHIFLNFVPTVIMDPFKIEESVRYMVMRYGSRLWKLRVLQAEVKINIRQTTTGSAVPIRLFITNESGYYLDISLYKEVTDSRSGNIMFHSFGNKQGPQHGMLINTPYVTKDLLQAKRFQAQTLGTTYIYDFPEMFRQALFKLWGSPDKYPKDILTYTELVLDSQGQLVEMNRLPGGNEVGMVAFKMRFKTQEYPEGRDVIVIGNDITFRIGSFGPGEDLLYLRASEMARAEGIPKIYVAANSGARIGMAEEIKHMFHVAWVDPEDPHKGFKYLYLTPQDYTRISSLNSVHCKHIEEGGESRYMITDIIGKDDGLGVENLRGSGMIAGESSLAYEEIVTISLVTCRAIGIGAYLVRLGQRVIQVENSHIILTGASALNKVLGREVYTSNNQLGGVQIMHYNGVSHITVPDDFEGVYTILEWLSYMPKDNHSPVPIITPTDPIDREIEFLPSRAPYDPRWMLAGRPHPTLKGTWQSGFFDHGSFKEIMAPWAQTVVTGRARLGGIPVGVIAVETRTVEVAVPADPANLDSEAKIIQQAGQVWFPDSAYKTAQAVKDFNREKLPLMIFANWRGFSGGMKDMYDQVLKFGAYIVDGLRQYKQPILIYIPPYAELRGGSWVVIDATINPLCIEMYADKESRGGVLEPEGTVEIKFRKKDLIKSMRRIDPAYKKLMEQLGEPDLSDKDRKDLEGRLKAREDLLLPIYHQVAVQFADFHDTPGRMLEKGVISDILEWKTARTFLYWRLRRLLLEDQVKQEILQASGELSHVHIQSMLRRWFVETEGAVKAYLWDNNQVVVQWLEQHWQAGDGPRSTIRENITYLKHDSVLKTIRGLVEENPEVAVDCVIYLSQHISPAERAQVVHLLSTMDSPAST

This assay concerns the target T1, human acetyl-CoA carboxylase 2 (ACC2) (Homo sapiens, UniProt O00763).
T1 construct: The cDNA encoding amino acids 144 to 2458 of human acetyl-CoA carboxylase 2; made in house; host or cells: Sf9 insect cells (baculovirus, pFastBac1)
Description: Acetyl-CoA carboxylase enzyme assay (malonyl-CoA formation by LC/MS/MS). The class given is biochemical. As to conditions: recombinant human ACC2 (aa 144-2458); read-out: IC50 ACC2. The procedure, abridged:
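Malonyl-CoA formation was read by LC/MS/MS MRM against a [13C3]-malonyl-CoA internal standard, after acetic acid quench. The enzyme was baculovirus/Sf9-expressed human ACC2 residues 144–2458, given 15 minutes room-temperature compound preincubation in HEPES pH 7.5 buffer with MgCl2, citrate and DTT. Substrate solution held 50 μM acetyl-CoA, 120 μM ATP and 2 mM KHCO3.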
On to `CC(C)OC(=O)c1ccc(NS(=O)(=O)c2ccc3[nH]c(-c4ccc(CNCc5ccccc5)cc4)nc3c2)cc1` [Example 560, isopropyl 4-(2-(4-((benzylamino)methyl)phenyl)-1H-benzo[d]imidazole-5-sulfonamdo)benzoate], for which the IC50 (usually the concentration that gives 50% inhibition) worked out at 397 nM.

For the molecule `O=C([C@H]1CC[C@H](NS(=O)(=O)c2ccc3c(c2)CCC(C(F)(F)F)N3)CC1)N1CCNCC1c1ccccc1` (some centres unmarked) [Example 182, N-((1r,4r)-4-(2-phenylpiperazine-1-carbonyl)cyclohexyl)-2-(trifluoromethyl)-1,2,3,4-tetrahydroquinoline-6-sulfonamide], the IC50 was found to be 685 nM.

Take `C[C@@H](NC(=O)[C@H]1CC[C@H](NS(=O)(=O)c2ccc3cc(C4CC4)[nH]c3c2)CC1)c1ccc(F)cc1` [Example 290, (1r,4R)-4-(2-cyclopropyl-1H-indole-6-sulfonamido)-N-((R)-1-(4-fluorophenyl)ethyl)cyclohexanecarboxamide]: the IC50 worked out at 28 nM. The result for `[2H]C([2H])([2H])N1CCOc2ccc(S(=O)(=O)N[C@H]3CC[C@H](C(=O)N[C@H](C)c4ccc(F)cc4)CC3)cc21` [Example 158, (1r,4R)-N-((R)-1-(4-fluorophenyl)ethyl)-4-(4-(trideuteriomethyl)-3,4-dihydro-2H-benzo[b][1,4]oxazine-6-sulfonamido)cyclohexanecarboxamide] reads 20 nM; that for `C[C@@H](NC(=O)[C@H]1CC[C@H](NS(=O)(=O)c2cccc3nc(-c4ccccc4)cn23)CC1)c1ccc(F)cc1` [Example 65, (1r,4R)-N-((R)-1-(4-fluorophenyl)ethyl)-4-(2-phenylimidazo[1,2-a]pyridine-5-sulfonamido)cyclohexanecarboxamide], 149 nM; that for `CC(C)c1nnc([C@H]2CC[C@H](NS(=O)(=O)c3ccc4[nH]c(Nc5ccccc5)nc4c3)CC2)o1` [Example 595, N-((1r,4r)-4-(5-isopropyl-1,3,4-oxadiazol-2-yl)cyclohexyl)-2-(phenylamino)-1H-benzo[d]imidazole-5-sulfonamide], 259 nM. In the case of `COc1ccccc1-c1nc2ccc(S(=O)(=O)Nc3ccc(C(=O)OC(C)C)cc3)cc2[nH]1` [Example 492, isopropyl 4-(2-(2-methoxyphenyl)-1H-benzo[d]imidazole-6-sulfonamido)benzoate] it was 1350 nM; in that of `CC(C)c1nnc(-c2ccc(NS(=O)(=O)c3ccc4[nH]c(Nc5ccc(N6CCOCC6)cc5)nc4c3)cc2)o1` [Example 603, N-(4-(5-isopropyl-1,3,4-oxadiazol-2-yl)phenyl)-2-(4-morpholinophenylamino)-1H-benzo[d]imidazole-5-sulfonamide], 323 nM; in that of `Cc1ccccc1-c1cc2ccc(S(=O)(=O)N[C@H]3CC[C@H](C(=O)N4CCOC[C@@H]4c4ccccc4)CC3)cc2[nH]1` [Example 326, N-((1S,4r)-4-((S)-3-phenylmorpholine-4-carbonyl)cyclohexyl)-2-o-tolyl-1H-indole-6-sulfonamide], 325 nM. For `CCC(C)NC(=O)[C@H]1CC[C@H](NS(=O)(=O)c2ccc3[nH]c(-c4cccnc4)cc3c2)CC1` (stereo partly drawn) [Example 287, (1r,4R)-N-sec-butyl-4-(2-(pyridin-3-yl)-1H-indole-5-sulfonamido)cyclohexanecarboxamide], the IC50 is 196 nM.

For `COC(=O)CN1CCCc2ccc(S(=O)(=O)N[C@H]3CC[C@H](C(=O)N[C@H](C)c4ccc(F)cc4)CC3)cc21` [Example 164, methyl 2-(7-(N-((1R,4r)-4-((R)-1-(4-fluorophenyl)ethylcarbamoyl)cyclohexyl)sulfamoyl)-3,4-dihydroquinolin-1(2H)-yl)acetate], the IC50 turned out to be 350 nM. Regarding `Cc1cc(CO)ccc1-c1cc2ccc(S(=O)(=O)N[C@H]3CC[C@H](C(=O)N[C@H](C)c4ccc(F)cc4)CC3)cc2n1C` [Example 315, (1r,4R)-N-((R)-1-(4-fluorophenyl)ethyl)-4-(2-(4-(hydroxymethyl)-2-methylphenyl)-1-methyl-1H-indole-6-sulfonamido)cyclohexanecarboxamide], the IC50 came to 20 nM. The result for `Cc1nc2cc(S(=O)(=O)N[C@H]3CC[C@H](C(=O)N[C@H](C)c4ccccc4)CC3)ccc2[nH]1` [Example 614, (1r,4R)-4-(2-methyl-1H-benzo[d]imidazole-5-sulfonamido)-N-((R)-1-phenylethyl)cyclohexanecarboxamide] reads 142 nM. In the case of `C[C@@H](NC(=O)[C@H]1CC[C@H](NS(=O)(=O)c2ccc3cc(CCCO)[nH]c3c2)CC1)c1ccc(F)cc1` [Example 319, (1r,4R)-N-((R)-1-(4-fluorophenyl)ethyl)-4-(2-(3-hydroxypropyl)-1H-indole-6-sulfonamido)cyclohexanecarboxamide] it was 25 nM; in that of `C[C@@H](NC(=O)[C@H]1CC[C@H](NS(=O)(=O)c2ccc3nc(OCC(F)(F)F)ccc3c2)CC1)c1ccc(F)cc1` [Example 50, (1r,4R)-N-((R)-1-(4-fluorophenyl)ethyl)-4-(2-(2,2,2-trifluoroethoxy)quinoline-6-sulfonamido)cyclohexanecarboxamide], above 35000 nM; in that of `CC(C)OC(=O)c1ccc(NS(=O)(=O)c2ccc3[nH]c(Nc4ccc(-n5cccn5)cc4)nc3c2)cc1` [Example 545, isopropyl 4-(2-(4-(1H-pyrazol-1-yl)phenylamino)-1H-benzo[d]imidazole-5-sulfonamido)benzoate], 623 nM. For the molecule `COCCc1ccc(-c2[nH]c3cc(S(=O)(=O)N[C@H]4CC[C@H](C(=O)N5CCC6(CC5)COC6)CC4)ccc3c2Cl)cc1` [Example 485, N-((1r,4r)-4-(2-oxa-7-azaspiro[3.5]nonane-7-carbonyl)cyclohexyl)-3-chloro-2-(4-(2-methoxyethyl)phenyl)-1H-indole-6-sulfonamide], the IC50 was found to be 43 nM.

For `CC(C)OC(=O)c1ccc(NS(=O)(=O)c2ccc3[nH]c(Nc4ccc5nsnc5c4)nc3c2)cc1` [Example 527, isopropyl 4-(2-(benzo[c][1,2,5]thiadiazol-5-ylamino)-1H-benzo[d]imidazole-5-sulfonamido)benzoate], the IC50 stood at 169 nM. The result for `COCc1ccc(-c2cc3ccc(S(=O)(=O)N[C@H]4CC[C@H](C(=O)N5CCOC[C@@H]5C5CC5)CC4)cc3[nH]2)cc1` [Example 455, N-((1S,4r)-4-((S)-3-cyclopropylmorpholine-4-carbonyl)cyclohexyl)-2-(4-(methoxymethyl)phenyl)-1H-indole-6-sulfonamide] reads below 10 nM; that for `CC(C)OC(=O)[C@H]1CC[C@H](NS(=O)(=O)c2ccc3[nH]c(Nc4ccccc4)nc3c2)CC1` [Example 554, (1r,4r)-isopropyl 4-(2-(phenylamino)-1H-benzo[d]imidazole-5-sulfonamido)cyclohexanecarboxylate], 28 nM; that for `CC(C)COC(=O)N1CCN(C(=O)OCC(C)C)c2cc(S(=O)(=O)N[C@H]3CC[C@H](C(=O)N[C@H](C)c4ccc(F)cc4)CC3)ccc21` [Example 214, diisobutyl 6-(N-((1R,4r)-4-((R)-1-(4-fluorophenyl)ethylcarbamoyl)cyclohexyl)sulfamoyl)-2,3-dihydroquinoxaline-1,4-dicarboxylate], 365 nM. In the case of `Cc1ccccc1-c1cc2ccc(S(=O)(=O)N[C@H]3CC[C@H](C(=O)N4CCCC(C(F)(F)F)C4)CC3)cc2[nH]1` (some centres unmarked) [Example 321, 2-o-tolyl-N-((1r,4r)-4-(3-(trifluoromethyl)piperidine-1-carbonyl)cyclohexyl)-1H-indole-6-sulfonamide] it was 250 nM; in that of `C[C@@H](NC(=O)C12CCC(NS(=O)(=O)c3cnc4c(c3)NCCN4)(CC1)CC2)c1ccc(F)cc1` [Example 270, (R)-N-(1-(4-fluorophenyl)ethyl)-4-(1,2,3,4-tetrahydropyrido[3,2-b]pyrazine-7-sulfonamido)bicyclo[2.2.2]octane-1-carboxamide], 165 nM; in that of `O=C(NCc1cccnc1)[C@H]1CC[C@H](NS(=O)(=O)c2ccc3[nH]c(-c4ccccc4)nc3c2)CC1` [Example 640, (1r,4r)-4-(2-phenyl-1H-benzo[d]imidazole-5-sulfonamido)-N-(pyridin-3-ylmethyl)cyclohexanecarboxamide], 960 nM. As for `C[C@@H]1CN(C(=O)[C@H]2CC[C@H](NS(=O)(=O)c3ccc4[nH]c(-c5ccccc5)nc4c3)CC2)C[C@H](C)O1` [Example 664, N-((1R,4r)-4-((2S,6R)-2,6-dimethylmorpholine-4-carbonyl)cyclohexyl)-2-phenyl-1H-benzo[d]imidazole-5-sulfonamide], the IC50 was 54 nM.

In the case of `C[C@@H](NC(=O)[C@H]1CC[C@H](NS(=O)(=O)c2ccc3cc(C4CCCC4)[nH]c3c2)CC1)c1ccc(F)cc1` [Example 304, (1r,4R)-4-(2-cyclopentyl-1H-indole-6-sulfonamido)-N-((R)-1-(4-fluorophenyl)ethyl)cyclohexanecarboxamide], the IC50 is 180 nM. In the case of `C[C@@H](NC(=O)[C@H]1CC[C@H](NS(=O)(=O)c2ccc3c(c2)C(NC(=O)C(F)(F)F)CCN3)CC1)c1ccc(F)cc1` (stereo partly drawn) [Example 185, (1r,4R)-N-((R)-1-(4-fluorophenyl)ethyl)-4-(4-(2,2,2-trifluoroacetamido)-1,2,3,4-tetrahydroquinoline-6-sulfonamido)cyclohexanecarboxamide] it was above 35000 nM; in that of `CC(C)[Si](C(C)C)(C(C)C)n1cc(Cl)c2ccc(S(=O)(=O)N[C@H]3CC[C@H](C(=O)N[C@H](C)c4ccc(F)cc4)CC3)cc21` [Example 116, (1r,4R)-4-(3-chloro-1-(triisopropylsilyl)-1H-indole-6-sulfonamido)-N-((R)-1-(4-fluorophenyl)ethyl)cyclohexanecarboxamide], 13 nM; in that of `CC(C)CCNC(=O)[C@H]1CC[C@H](NS(=O)(=O)c2ccc3[nH]c(-c4ccccc4)nc3c2)CC1` [Example 630, (1r,4r)-N-isopentyl-4-(2-phenyl-1H-benzo[d]imidazole-5-sulfonamido)cyclohexanecarboxamide], 781 nM.

These data come from US8697739B2, “Bicyclic acetyl-CoA carboxylase inhibitors and uses thereof” (Novartis AG, priority 2010, dated 2014).
